Assay results published in publication PMC7959842, “Deregulation of Factor H by Factor H-Related Protein 1 Depends on Sialylation of Host Surfaces” (Frontiers in Immunology, 2021).

Experiments:
Format in all cases: binding
FH18-20 [1] = biological target: T1, FH18-20 (Homo sapiens, UniProt P08603); assay: intrinsic tryptophan fluorescence (nanoDSF), titration; also STD NMR; settings: 50 mM HEPES pH 7.4, 150 mM NaCl, 3 mM EDTA; 20 and 37 °C; in solution
T1 construct: gene CFH; C-terminal fragment CCP18-20, monomeric, recombinant from Pichia pastoris
T1 sequence (P08603 1046-1231 limits assumed): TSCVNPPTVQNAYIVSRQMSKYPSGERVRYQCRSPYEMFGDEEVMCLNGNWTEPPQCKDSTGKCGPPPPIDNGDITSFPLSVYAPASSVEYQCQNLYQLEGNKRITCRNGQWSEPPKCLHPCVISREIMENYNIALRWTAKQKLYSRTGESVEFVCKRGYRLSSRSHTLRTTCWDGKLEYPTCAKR

FH19-20 = biological target: T2, FH19-20 (Homo sapiens, UniProt P08603); assay: SPR, immobilised glycan, concentration series; settings: labelled compound (biotin-coupled on streptavidin chip); PBS, 0.005% Tween20, 25 °C; rough estimate, saturation not reached; read-out: affinity
T2 construct: gene CFH; C-terminal fragment CCP19-20, recombinant from Pichia pastoris
T2 sequence (P08603 1107-1231 limits assumed): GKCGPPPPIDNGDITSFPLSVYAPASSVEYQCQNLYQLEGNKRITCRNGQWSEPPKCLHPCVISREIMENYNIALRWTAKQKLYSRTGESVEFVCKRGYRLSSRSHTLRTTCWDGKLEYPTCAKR

FH18-20 [2] = biological target: T1, FH18-20; assay: SPR, immobilised glycan, concentration series; settings: labelled compound (biotin-coupled on streptavidin chip); PBS, 0.005% Tween20, 25 °C; rough estimate, saturation not reached; read-out: affinity

Kd (FH19-20) [µM] | Kd (FH18-20 [2]) [µM] | Molecule | affinity (FH18-20 [1])
 |  | CC(=O)N[C@H]1[C@H]([C@H](O)[C@H](O)CO)O[C@@](O[C@H]2[C@@H](O)[C@@H](CO)O[C@@H](O[C@H]3[C@H](O)[C@@H](O)C(O)O[C@@H]3CO)[C@@H]2O)(C(=O)O)C[C@@H]1O (stereo partly drawn) [3’-sialyllactose] | monovalent interactions in solution were generally weaker; with estimated affinities in the millimolar range
> 100 | > 100 | biotinylated 3´-sialyl-N-acetyllactosaminide | 
